What was measured:
TASK-3 WT channel [1] = target: T1, TASK-3 WT channel (Cavia porcellus, UniProt Q9JL58); conditions: +80 mV, HEK-293 cells
[2] = target: TASK-3/2loop2 (cap-less TASK-3 channel) (Cavia porcellus, UniProt Q9JL58); conditions: symmetrical K+ conditions, HEK-293 cells
TASK-3/2loop2/Y99A = TASK-3/2loop2/Y99A (Cavia porcellus, UniProt Q9JL58); conditions: HEK-293 cells
TASK-3/2loop2/Y205A = TASK-3/2loop2/Y205A (Cavia porcellus, UniProt Q9JL58, Y205A, form not given); conditions: HEK-293 cells
TASK-3/2loop2/Y99A/Y205A = TASK-3/2loop2/Y99A/Y205A (Cavia porcellus, UniProt Q9JL58, Y205A, form not given); conditions: HEK-293 cells; similar to TASK-3 WT
Kv2.1 channel = Kv2.1 channel (Rattus norvegicus, UniProt P15387); test: cell-based; conditions: HEK293, read-out: inhibition of Kv2.1 currents
TASK-3 WT channel [3] = target: T1, TASK-3 WT channel; test: cell-based

Chain of TASK-3/2loop2/Y205A (Q9JL58 with tags, fused parts or gaps Y205A, form open): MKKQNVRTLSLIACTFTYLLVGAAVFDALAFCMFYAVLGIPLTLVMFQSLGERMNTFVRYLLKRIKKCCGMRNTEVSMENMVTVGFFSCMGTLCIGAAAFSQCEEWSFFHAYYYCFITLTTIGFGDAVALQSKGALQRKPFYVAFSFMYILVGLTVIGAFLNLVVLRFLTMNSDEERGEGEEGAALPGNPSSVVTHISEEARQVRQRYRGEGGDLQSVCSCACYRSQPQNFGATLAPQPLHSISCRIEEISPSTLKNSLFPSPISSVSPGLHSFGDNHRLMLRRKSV
T1 sequence (Q9JL58 whole entry): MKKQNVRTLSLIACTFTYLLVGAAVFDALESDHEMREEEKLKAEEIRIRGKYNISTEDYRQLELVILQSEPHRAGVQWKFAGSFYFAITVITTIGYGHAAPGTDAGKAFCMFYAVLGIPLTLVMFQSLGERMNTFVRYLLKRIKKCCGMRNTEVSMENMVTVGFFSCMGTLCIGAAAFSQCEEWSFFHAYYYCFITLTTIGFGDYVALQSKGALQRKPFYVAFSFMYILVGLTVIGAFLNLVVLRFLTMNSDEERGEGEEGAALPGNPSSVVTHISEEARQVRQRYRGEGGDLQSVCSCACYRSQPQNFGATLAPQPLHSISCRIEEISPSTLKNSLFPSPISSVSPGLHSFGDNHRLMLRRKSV
Chain of TASK-3/2loop2 (cap-less TASK-3 channel) (Q9JL58 with tags, fused parts or gaps): as the sequence (Q9JL58 with tags, fused parts or gaps Y205A, form open) above, with A127Y counted along it
Chain of TASK-3/2loop2/Y99A (Q9JL58 with tags, fused parts or gaps): as the sequence (Q9JL58 with tags, fused parts or gaps Y205A, form open) above, with A127Y counted along it
Chain of Kv2.1 channel (P15387 whole entry): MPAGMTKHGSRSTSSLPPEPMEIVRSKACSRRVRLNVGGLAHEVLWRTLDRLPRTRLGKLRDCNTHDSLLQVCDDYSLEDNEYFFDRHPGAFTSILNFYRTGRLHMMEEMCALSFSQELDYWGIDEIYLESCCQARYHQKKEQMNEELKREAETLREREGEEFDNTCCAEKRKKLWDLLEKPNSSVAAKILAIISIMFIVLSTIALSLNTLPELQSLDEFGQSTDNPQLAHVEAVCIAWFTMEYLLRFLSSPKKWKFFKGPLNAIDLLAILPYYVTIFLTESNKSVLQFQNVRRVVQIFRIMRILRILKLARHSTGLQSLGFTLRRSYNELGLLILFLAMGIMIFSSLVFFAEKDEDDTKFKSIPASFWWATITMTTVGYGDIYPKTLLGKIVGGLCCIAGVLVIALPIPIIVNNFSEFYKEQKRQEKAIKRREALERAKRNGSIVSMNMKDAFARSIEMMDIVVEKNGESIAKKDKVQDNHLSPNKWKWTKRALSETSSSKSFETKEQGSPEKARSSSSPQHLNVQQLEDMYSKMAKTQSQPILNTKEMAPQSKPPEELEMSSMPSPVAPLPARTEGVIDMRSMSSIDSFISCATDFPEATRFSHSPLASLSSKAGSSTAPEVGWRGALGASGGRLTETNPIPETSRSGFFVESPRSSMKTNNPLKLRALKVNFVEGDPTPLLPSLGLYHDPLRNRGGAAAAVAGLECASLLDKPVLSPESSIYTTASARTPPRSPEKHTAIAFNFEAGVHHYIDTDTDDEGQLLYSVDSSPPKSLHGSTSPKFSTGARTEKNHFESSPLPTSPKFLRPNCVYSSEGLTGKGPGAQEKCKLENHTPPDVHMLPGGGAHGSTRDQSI
Chain of TASK-3/2loop2/Y99A/Y205A (Q9JL58 with tags, fused parts or gaps Y205A, form open): as the sequence (Q9JL58 with tags, fused parts or gaps Y205A, form open) above

SMILES: CC[N+](CC)(CC)CC [TEA, tetraethylammonium]
- inhibition at saturating TEA concentrations (TASK-3 WT channel [1]): 30%
- maximum inhibition [2]: 90%
- IC50 ([2]; n = 4): 11.8 ± 0.4 mM
- maximal inhibition (TASK-3/2loop2/Y99A): 46%
- IC50 (TASK-3/2loop2/Y99A; n = 4): 17.3 ± 1.8 mM
- maximal inhibition (TASK-3/2loop2/Y205A): 59%
- IC50 (TASK-3/2loop2/Y205A; n = 3): 63.9 ± 5.4 mM
- sensitivity to TEA blockade (TASK-3/2loop2/Y99A/Y205A): essentially insensitive
- inhibition at 100000 µM (Kv2.1 channel): ~85%
- IC50 (TASK-3 WT channel [3]): 12.5 ± 3.4 mM
